# Assay results reported in US20040229960A1, “Compositions and methods of administering tubulin binding agents for the treatment of ocular diseases” (priority 2001, published 2004).
# Assays:
# [1] = system: oxygen-induced retinal neovascularization; assay: Murine model of oxygen-induced retinal neovascularization (ROP); assay type: in vivo; conditions: neonatal mouse treated upon removal from hyperoxic conditions
# Source text: The inner retina of the mammalian eye receives oxygen from the superficial retinal capillary bed. This capillary bed is located beneath the inner limiting membrane which serves as the interface between the inner retina and the outer avascular vitreous. The pathology of retinal neovascularization or retinopathy arises from ischemia-induced growth of neovasculature beyond the retinal inner limiting membrane and into the vitreous, causing severe loss of vision and frequently leading to retinal detachment. […] In this model neonatal mice are exposed to sustained hyperoxic conditions (75% oxygen for 7 days) that inhibit the development of the superficial retinal capillary bed. When a mouse pup is removed from the pure oxygen environment and placed in the relative hypoxia of environmental oxygen, the underdeveloped superficial retinal capillary bed is unable to deliver sufficient quantities of oxygen to the retina. […]
# It is expected that the treatment of a neonatal mouse with CA4P immediately upon its removal from hyperoxic conditions would be an effective treatment method for ROP. Retinal neovascularization can be quantified by counting the number chemically stained nuclei of penetrating endothelial cells in retinal tissue section of treated and untreated eyes according to existing methods (Majka et al., Invest. Ophthalmol. Vis. Sci. 2001, 42: 210-15).
# [2] = system: corneal neovascularization; assay: LHP-induced rabbit corneal neovascularization model, IP treatment; assay type: in vivo, New Zealand rabbits; conditions: for Effect on neovascular growth: 50 mg/kg IP
# Source text: To assess the ability of CA4P to inhibit corneal neovascularization, a rabbit corneal model was used in which neovascularization was induced by linoleic acid hydroperoxide (“LHP”) injection (Ueda et al., Angiogenesis, 1997, 1: 174-184). Injection of LHP in the corneal stroma stimulates the localized production of angiogenic cytokines within the cornea. Blood vessels in the circumlimbal plexus respond to the angiogenic stimulation by migrating towards the site of LHP injection. Therapeutic efficacy of systemically delivered CA4P was assessed by measuring the length of these proliferating vessels.
# Vessels grew at a rate of 0.25 mm/day. Groups 2 and 4 were injected intraperitoneally (“IP”) with CA4P (50 mg/kg) after 3 and 10 days of vessel growth respectively. Treatment groups 1 and 3 were injected with saline control on day 3 and day 10 post-LHP injection. Surface photographs of the cornea were taken at 0, 3, 6, 12, 17, and 28 days post-LHP injection. Following each photographic session, corneal vessels were observed under an operating microscope and Castroviejo calipers were used to measure the length of the most prominent vessel.
# In addition to longest-vessel measurements, histology analysis was undertaken on day 28 to assess the amount of dissolved extracellular matrix, vessel wall thickness, and degree of vessel branching. Euthanized animals were enucleated and the vitreous was removed from each eye prior to fixation in 4% paraformaldehyde for 45 minutes and 0.2M cacodylate buffer (pH 7.4) overnight. Eyes were embedded in paraffin, sectioned to a 3 um thickness, and stained with […] and eosin.
# [3] = Intraocular irritation following intravitreal injection; assay type: in vivo, rabbits; conditions: for Mean cell counts in the vitreous fluid (white blood cells): 0.2 ml intravitreal, about 48 h, <=200 acceptable
# Procedure: The test article, CA4P, was evaluated for the potential to cause intraocular irritation following intravitreal injection in rabbits. Following general anesthesia, a 0.2 ml dose of CA4P was administered to the right eyes of eight rabbits. A 0.2 ml dose of 0.9% sodium chloride USP solution was administered to the left eyes of the rabbits to serve as a negative control. Four different concentrations of CA4P were tested. Each of the four concentrations (0.1 mg/ml, 1.0 mg/ml, 10 mg/ml and 100 mg/ml) were dosed to the right eyes of two rabbits. Approximately 48 hours after the treatment, the eyes were examined with a biomicroscopic slit-lamp and an indirect ophthalmoscope. The scores were recorded and the rabbits were euthanized. Immediately after euthanasia, samples of vitreous fluid were drawn and white blood cell counts were determined with a hemacytometer. Counts less than or equal to 200 cells/mm^3 were considered to be acceptable.
# [4] = Biodistribution of 14C-CA4P following periocular injection; assay type: in vivo, New Zealand rabbits
# Procedure: ^14C-CA4P (OXiGENE Inc., Watertown, Mass.) was resuspended in 100 ul volume of saline solution and injected with a 30 G needle into the right eyes of anesthesized male New Zealand rabbits (4 months old, 1.8-2.5 kg, n=3 per sample). Three different concentrations of ^14C-CA4P were tested (1, 10, 100 mg/ml) corresponding to doses of 1, 5, and 5 uCi of applied radioactivity respectively. A blank control group was also included. Rabbits were anaesthetized at 1, 6, 24, and 48 hours for blood sampling. After blood collection, the animals were euthanized by Phenobarbital injection and the treated right eyes were removed from all test animals. Ocular tissue samples were dissected from the cornea, aqueous humor, vitreous humor, choroid, or retina, placed in 20-mi glass scintillation vials, vortexed, and incubated for 24 hrs with 500 ul digesting fluid. Plasma was separated from whole blood by centrifugation (1,800 g for 10 minutes). Both ocular tissue samples and plasma were incubated at room temperature with 16 ml of Hionic Fluor™ scintillation fluid for a period of 24 hours prior to radioactivity counting. Each sample was counted for 5 minutes in a Betamatic V counter (Bio-Tek Kontron Instruments, St Quentin en Yvelines, France). The conversion of counts per minute (“cpm”) into disintegrations per minute (“dpm”) was performed automatically by the beta-counter, using calibration curves obtained from ^14C-standards and quenching curves from the respective blank matrices spiked with ^14C-standards. The concentration of drug was determined according to nanogram equivalents of CA4P (ng-Eq/g of tissue) which was calculated from the measured dpm value, the weight of the tissue specimen, and the specific activity of the drug (0.37 mCi/mg), followed by subtraction of the corresponding background value from control eye tissue. A tissue concentration of 1 uM CA4P is equal to […] tissue.
# [5] = early intervention, 50 mg/kg IP qd x 5 from Day 3 (Group 2)
smiles,measurement,setting,value
"COc1ccc(/C=C\c2cc(OC)c(OC)c(OC)c2)cc1OP(=O)([O-])[O-].[Na+].[Na+] [CA4P, combretastatin A4 disodium phosphate]",Number of nuclei penetrating the inner limiting membrane,[1],significantly reduced
same,Histology of corneal vessels,"[2]; Day 28, stained sections, vs vehicle (round and numerous)",vessels appeared narrow and less numerous
same,Vessel Length on Day 6,[2]; [5],0.7 ± 0.16 mm
same,Vessel Length on Day 12,[2]; [5],0.5 ± 0.61 mm
same,Vessel Length on Day 3,"[2]; early intervention, 50 mg/kg IP qd x 5 from Day 3 (Group 2), Day 3 = treatment start",0.6 ± 0.12 mm
same,Effect on neovascular growth,[2]; intervention 10 days after angiogenic stimulation,the effect was the same
same,Effect on neovascular growth,[2]; intervention within 3 days of angiogenic stimulation,complete inhibition of neovascular growth
same,Vessel Length on Day 12,"[2]; late intervention, 50 mg/kg IP from Day 10 (Group 4), first column",2.6 ± 0.29 mm
same,Vessel Length on Day 12,"[2]; late intervention, 50 mg/kg IP from Day 10 (Group 4), second column",2.8 ± 0.49 mm
same,Regression rate of preformed vessels in the eye,"[2]; rabbit eyes, preliminary work (FIGS. 3, 4)",accelerated the regression rate of preformed vessels
same,Mean cell counts in the vitreous fluid (white blood cells),[3]; 0.1 mg/ml,9 cells/mm^3
same,Irritation on slit-lamp and ophthalmoscope examination,"[3]; 1 mg/ml intravitreal, 2 rabbits",evidence of irritation was noted in one animal
same,Mean cell counts in the vitreous fluid (white blood cells),[3]; 1 mg/ml,962 cells/mm^3
same,Mean cell counts in the vitreous fluid (white blood cells),[3]; 10 mg/ml,10 cells/mg^3
same,"Irritation and inflammation, ophthalmic exams and vitreous white blood cells","[3]; 100 mg/ml intravitreal, both animals",pronounced irritation and inflammation
same,Mean cell counts in the vitreous fluid (white blood cells),[3]; 100 mg/ml,409 cells/mm^3
same,Irritation (Draize Scores),"[3]; Intravitreal, <1 mg",No Irritation
same,"Irritation and inflammation, ophthalmic exams and vitreous white blood cells","[3]; lower dose levels 0.1, 1.0 and 10 mg/ml intravitreal",no clear evidence of irritation or inflammation
same,Cmax,"[4]; choroid, 1 mg/ml periocular",14.3 µM
same,Cmax,"[4]; choroid, 10 mg/ml periocular",74.5 µM
same,Cmax,"[4]; choroid, 100 mg/ml periocular",1040 µM
same,Time of highest concentrations of drug in the eye,[4]; periocular injection,within the first hour
same,Cmax,"[4]; plasma, 1 mg/ml periocular",0.07 µM
same,Cmax,"[4]; plasma, 10 mg/ml periocular",0.79 µM
same,Cmax,"[4]; plasma, 100 mg/ml periocular",12.3 µM
same,Concentration of drug delivered,"[4]; retina and choroid, all administered doses, periocular",> 1 µM
same,Cmax,"[4]; retina, 1 mg/ml periocular",4.4 µM
same,Cmax,"[4]; retina, 10 mg/ml periocular",54 µM
same,Cmax,"[4]; retina, 100 mg/ml periocular",169 µM
same,Cmax,"[4]; sclera, 1 mg/ml periocular",18 µM
same,Cmax,"[4]; sclera, 10 mg/ml periocular",280 µM
same,Cmax,"[4]; sclera, 100 mg/ml periocular",3370 µM
same,Cmax,"[4]; vitreous, 1 mg/ml periocular",0.03 µM
same,Cmax,"[4]; vitreous, 10 mg/ml periocular",0.34 µM
same,Cmax,"[4]; vitreous, 100 mg/ml periocular",3.35 µM
